Data published in the NIST ThermoML archive (doi:10.1016/j.jct.2018.05.003).
Numbers after ± are expanded uncertainties.

Assay: not given
Settings: Crystal; visual observation

Normal melting temperature [°C]	Compound
95.4 ± 1.1	O=C(C(=O)c1ccccc1)c1ccccc1 [1,2-diphenylethanedione]
167.0 ± 1.1	O=C(O)c1cc([N+](=O)[O-])ccc1Cl [2-chloro-5-nitrobenzoic acid]
159.6 ± 1.1	O=C(O)c1ccccc1O [2-hydroxybenzoic acid]
109.2 ± 0.9	Cc1cccc(C(=O)O)c1 [3-methylbenzoic acid]
141.6 ± 0.9	O=C(O)c1cccc([N+](=O)[O-])c1 [3-nitrobenzoic acid]
183.2 ± 1.1	O=C(O)c1ccc(Cl)c([N+](=O)[O-])c1 [4-chloro-3-nitrobenzoic acid]
122.5 ± 0.9	O=C(O)c1ccccc1 [benzoic acid]

Compound	Normal melting temperature [°C]
c1ccc2c(c1)Nc1ccccc1S2 [10H-phenothiazine]	184.8 ± 0.7
O=S(=O)(c1ccccc1)c1ccccc1 [diphenyl sulfone]	125.1 ± 0.9

Assay: activity coefficient (dimensionless); of the first substance listed, at infinite dilution; xn = mol fraction of the nth substance listed
Settings: 298.15 K; 101.33 kPa; Liquid; Chromatography; x1 = 0

activity coefficient	Compound
0.91 ± 0.03	C1COCCO1 [1,4-dioxane] + CCCCCOC(C)=O
1.14 ± 0.05	C=CCCCCC=C [1,7-octadiene] + CCCCCOC(C)=O
1.35 ± 0.04	C=CCCCCC [1-heptene] + CCCCCOC(C)=O
0.85 ± 0.03	C#CCCCCCC [1-octyne] + CCCCCOC(C)=O
1.69 ± 0.05	CC#N [acetonitrile] + CCCCCOC(C)=O
0.73 ± 0.03	c1ccccc1 [benzene] + CCCCCOC(C)=O
1.51 ± 0.05	C1CCCCC1 [cyclohexane] + CCCCCOC(C)=O
1.16 ± 0.03	C1=CCCCC1 [cyclohexene] + CCCCCOC(C)=O
2.5 ± 0.13	CCCCCCCCCC [decane] + CCCCCOC(C)=O
2.97 ± 0.12	CCO [ethanol] + CCCCCOC(C)=O
0.96 ± 0.03	CCOC(C)=O [ethyl acetate] + CCCCCOC(C)=O
0.98 ± 0.04	CCc1ccccc1 [ethylbenzene] + CCCCCOC(C)=O
0.61 ± 0.03	Fc1ccccc1 [fluorobenzene] + CCCCCOC(C)=O
1.9 ± 0.1	CCCCCCC [heptane] + CCCCCOC(C)=O
1.22 ± 0.03	C=CCCCC [hex-1-ene] + CCCCCOC(C)=O
1.74 ± 0.1	CCCCCC [hexane] + CCCCCOC(C)=O
2.17 ± 0.14	CCCCCCCCC [nonane] + CCCCCOC(C)=O
2.02 ± 0.09	CCCCCCCC [octane] + CCCCCOC(C)=O
2.43 ± 0.11	CCCO [propan-1-ol] + CCCCCOC(C)=O
2.86 ± 0.11	CC(C)O [propan-2-ol] + CCCCCOC(C)=O
1.02 ± 0.06	CCCc1ccccc1 [propylbenzene] + CCCCCOC(C)=O
0.8 ± 0.04	C1CCOC1 [tetrahydrofuran] + CCCCCOC(C)=O
0.27 ± 0.03	ClC(Cl)Cl [trichloromethane] + CCCCCOC(C)=O

The next lines start with the molecule.

Compound	activity coefficient
CC(Cl)CCl (stereo unspecified) [1,2-dichloropropane] + CCCCCOC(C)=O	0.61 ± 0.03
Cc1cccc(C)c1 [1,3-dimethylbenzene] + CCCCCOC(C)=O	0.9 ± 0.03
Cc1ccc(C)cc1 [1,4-dimethylbenzene] + CCCCCOC(C)=O	0.92 ± 0.03
CCCCCl [1-chlorobutane] + CCCCCOC(C)=O	0.84 ± 0.03
CC(C)Br [2-bromopropane] + CCCCCOC(C)=O	0.82 ± 0.03
CC(C)=O [acetone] + CCCCCOC(C)=O	1.19 ± 0.05
Brc1ccccc1 [bromobenzene] + CCCCCOC(C)=O	0.78 ± 0.05
C[N+](=O)[O-] [nitromethane] + CCCCCOC(C)=O	1.28 ± 0.05
Cc1ccccc1 [toluene] + CCCCCOC(C)=O	0.86 ± 0.04
